Structures can show the parent of a compound that is named as a salt.
Columns and labels:
[1] = human, in vivo, iv
[2] = sublingual dose of 100 micrograms, human subjects; cited from earlier work
[3] = IV infusion from 0.2 mcg/kg/hr, schizophrenia patients
Method: All participants were screened for inclusion and exclusion criteria. The participants were admitted to the site at screening (Day −1), the day before the infusion. Baseline assessments were performed on Day −1, as well as on the day of infusion (Day 1). The participants were on Day 1 prepared for the infusion, infused for up to 3 hours and monitored for resolution of sedation and any decreases in blood pressure or heart rate which met stopping criteria. The participants were not discharged from the research unit until three hours after resolution of any reduction in the level of arousal (e.g., RASS −1) and/or resolution of any decrease in blood pressure or heart rate meeting stopping criteria.
Participants randomized to placebo received a matching intravenous infusion of placebo solution.
Once the participant was drowsy (RASS −1), the infusion was stopped. […]
(1) Richmond Agitation Sedation Scale (RASS): The desired endpoint was how rapidly drowsiness (RASS −1) could be achieved without causing changes in heart rate or blood pressure greater than that specified by the protocol. The study also monitored how long the participant remained at that level of sedation; sedation was considered resolved when the participant was awake and spontaneously responding.

With `Cc1cccc([C@H](C)c2cnc[nH]2)c1C` [dexmedetomidine hydrochloride, (+) 4-(S)-[1-(2,3-dimethylphenyl)ethyl]-1H-imidazole] as the compound, how does the “Time to reach Cmax” value [1] read?
The value was 15 to 105 min.

What about the hypotension post-administration [2] of the same compound?
Its hypotension post-administration is “Hypotension was observed”.

And the “patients in the treatment arm achieving a RASS score of at least −1” value [3]?
Its value is 9 out of 10.

And the “patients in the treatment arm with agitation reduced to a minimum (PEC score of 7 or below)” value (IV infusion, schizophrenia patients)?
The value was 9 out of 10.

What about the “subjects with >=50% reduction in PEC score” value (IV route, schizophrenia) of the same compound?
Its value is 7 of 10.
